Reference: article PMC3672920, “Sulfated Metabolites of Polychlorinated Biphenyls Are High-Affinity Ligands for the Thyroid Hormone Transport Protein Transthyretin” (Environmental Health Perspectives, 2013)
Structures can show the parent of a compound that is named as a salt.

Tests used:
TTR = target: T1, TTR (Homo sapiens, UniProt P02766); test: HPLC analysis of PCB sulfates after incubation with TTR (stability, reversibility); type: physicochemical; settings: 5 µM PCB sulfate, 0.5 µM TTR, phosphate buffer pH 7.4, 25°C, up to 120 min
T1 construct: TTR purified from human plasma (> 95%); purchased Sigma-Aldrich; host or cells: human plasma
Method: HPLC analysis of PCB sulfates. TTR (0.5 µM) and PCB sulfate (5 µM) were incubated in phosphate buffer (50 mM sodium phosphate, 100 mM NaCl; pH 7.4) at 25°C (± 0.5°C) for 120 min. After 0, 60, and 120 min, 20 µL samples were analyzed for PCB sulfates by chromatography on a C18 HPLC column with a linear acetonitrile gradient (15–95%) in triethylammonium acetate (1% vol/vol; pH 7.5). Detailed HPLC conditions and representative chromatograms are provided in Supplemental Material, Figure S3 (http://dx.doi.org/10.1289/ehp.1206198).
Supplemental Material, Fi g u r e S6: PCB sulfates are stable upon incubation with TTR, and the interaction is non-covalent. 5µM samples of PCB sulfates were incubated for up t o 120 […]
sodium phosphate, 100 mM NaCl, pH 7.4) at 25 °C. Their quantitative recover y (as compared to a corresponding 5 µM PCB sulfate standard) by HPLC indicated non- covalent binding interactions between PCB sulfates and TTR.
(1 picture or pasted object on this page, not shown here)

recombinant hSULT1A1 = tested on: T2, recombinant hSULT1A1; test: Sulfotransferase assay (PAP formation, HPLC); type: in vitro ADME, human; settings: 200 µM PAPS, 37°C, pH 7.0, 10 min; for substrate for human SULT1A1: 0, 10, 20 or 30 µM OH-PCB, cytosolic extract of E. coli expressing hSULT1A1; for specific activity (rate of sulfation) with hSULT1A1, ranking in words: 10–30 µM OH-PCB
T2 construct: purchased Xenotech; host or cells: E. coli
Method: Sulfotransferase assay. The assays for sulfation of OH-PCBs catalyzed by hSULT1A1 were conducted according to a previously published procedure ([Liu et al. 2009]). Assay mixtures containing 0, 10, 20, or 30 µM of the potential substrate were preincubated at 37°C in the presence of 200 µM PAPS and 7.5 mM 2-mercaptoethanol in 250 mM potassium phosphate at pH 7.0. After adding 1 µL of cytosolic extract of E. coli expressing hSULT1A1 (10 µg cytosolic protein), the reaction mixture (total volume 30 µL) was incubated for 10 min before the reaction was terminated by the addition of 30 µL methanol. Samples (20 µL) were subsequently analyzed by HPLC to determine the amount of PAP formed in the reaction ([Sheng et al. 2001]).

[1] = target: T3, TTR purified from human plasma (Homo sapiens, UniProt P02766); test: ANS displacement assay (fluorescence probe displacement) for binding to TTR; settings: low-affinity (second) binding site on TTR; ligand ≤ 2,000 nM; all data points fit to two-site binding equation; read-out: Kd2
T3 construct: TTR purified from human plasma (> 95%); purchased Sigma-Aldrich; host or cells: human plasma
Method: Three fluorescence measurements were averaged per determination, and at least three separate determinations were made at each ligand concentration. The protocol was optimized for ligand concentrations of ≤ 2,000 nM, and assays were conducted at 25°C (± 0.2°C) in quartz cuvettes with a 1-cm path length. […] Binding data were evaluated by fitting the means of each determination to both a one-site plus nonspecific binding equation [y = (Bmax1 × x)/(Kd1 + x) + Ns] and a two-site binding equation [y = (Bmax1 × x)/(Kd1 + x) + (Bmax2 × x)/(Kd2 + x)]. In these equations, Kd1 is the dissociation constant for the TTR-ligand complex and Kd2 is the dissociation constant for the TTR complex with two bound ligands, Bmax1 and Bmax2 are the relative changes in fluorescence required to saturate the respective binding sites and Ns is a constant representing low-affinity interactions. […] The variables x and y represent ligand concentrations and changes in fluorescence (Δ fluorescence), respectively. […] In order to determine Kd2 values, all available data points were fit to the two-site binding equation.

Structure (SMILES) | recovery of PCB sulfate by HPLC after incubation with TTR (stability) (TTR) | substrate for human SULT1A1 (recombinant hSULT1A1) | specific activity (rate of sulfation) with hSULT1A1, ranking in words (recombinant hSULT1A1) | Kd [1] | melting point
O=S(=O)(O)Oc1cccc(-c2ccc(Cl)cc2)c1 [3´PCB 3 sulfate, 3´-sulfooxy-4-chloro-biphenyl] | quantitatively recovered |  |  |  | 
Oc1ccc(-c2cccc(Cl)c2)cc1Cl [4´OH-PCB 11, 3,3´-dichloro-biphenyl-4-ol] |  | substrates | slightly lower specific activities | 624 ± 207 nM | 
O=S(=O)(O)Oc1ccc(-c2ccc(Cl)c(Cl)c2)cc1 [4´PCB 12 sulfate, 3,4-dichloro-4´-sulfooxy-biphenyl] | quantitatively recovered |  |  | 742 ± 58 nM | 
O=S(=O)(O)Oc1ccc(-c2cccc(Cl)c2)cc1Cl (as salt: ammonium) [4´PCB 11 sulfate, 3,3´-dichloro-4´-sulfooxy-biphenyl] |  |  |  |  | 220 °C (dec.)
Oc1cccc(-c2ccc(Cl)cc2)c1 [3´OH-PCB 3, 4´-chloro-biphenyl-3-ol] |  | substrates | highest specific activities |  | 
Oc1ccc(-c2ccc(Cl)c(Cl)c2)cc1 [4´OH-PCB 12, 3´,4´-dichloro-biphenyl-4-ol] |  | substrates | slightly lower specific activities | 825 ± 47 nM | 
O=S(=O)(O)Oc1ccccc1-c1ccc(Cl)cc1 [2´PCB 3 sulfate, 2´-sulfooxy-4-chloro-biphenyl] | quantitatively recovered |  |  |  | 
O=S(=O)(O)Oc1ccc(-c2ccc(Cl)cc2)cc1 [4´PCB 3 sulfate, 4-chloro-4´-sulfooxy-biphenyl] | quantitatively recovered |  |  |  | 
O=S(=O)(O)Oc1ccc(-c2cccc(Cl)c2)cc1Cl [4´PCB 11 sulfate, 3,3´-dichloro-4´-sulfooxy-biphenyl] | quantitatively recovered |  |  | 624 ± 63 nM | 
Oc1ccc(-c2ccc(Cl)cc2)cc1 [4´OH-PCB 3, 4´-chloro-biphenyl-4-ol] |  | substrates | slightly lower specific activities |  | 
Oc1ccccc1-c1ccc(Cl)cc1 [2´OH-PCB 3, 4´-chloro-biphenyl-2-ol] |  | substrates | highest specific activities |  | 
